# Results published in patent EP4772510A2, “BENZAZEPINONE COMPOUND AND USE THEREOF” (HANGZHOU BIO-SINCERITY PHARMA-TECHCO., LTD., priority 2023, dated 2025).
# Columns and labels:
# in vivo = details: rat
# Procedure: Example 59: Pharmacokinetic Experiment of Compounds in SD Rats
# SD rats, male, 6-8 weeks old, purchased from Zhejiang Vital River Laboratory Animal Technology Co., Ltd., production license No.: SCXK (Zhejiang) 2019-0001. The animals were maintained in an SPF-grade animal room of Hangzhou Bio-Sincerity Pharma-Tech Co., Ltd., with the experimental animal use license No. of SYXK (Zhejiang) 2021-0014. The animals were used after being acclimatized for at least one week. All experiments were performed in strict compliance with the regulations on experimental animals.
# Four hours after administration, food was provided.
# After administration to SD rats, about 300 µL of blood was collected from the orbit of each animal and anticoagulated with EDTA-Na2. […] The collected blood was placed in an ice bath and centrifuged within 1 h to separate plasma (centrifugation conditions: 2000× g, 10 min, 4 °C). 50 µL of plasma sample was taken, subjected to protein precipitation, and then assayed by UHPLC-MS. The assay data were analyzed and processed using WinNonLin8.1 pharmacokinetic software to obtain pharmacokinetic parameters.
# HT-29 cells = experiment: Inhibition of TNF-α-induced necroptosis of HT-29 cells (SRB method); type: cell-based, human; details: 18 h
# Method in brief: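 HT-29 cells (3 × 10^4/well, 24 h) were treated 18 h with compound (8 three-fold dilutions, 1000.00-0.46 nM, duplicate) plus TNF-α 20 ng/mL, BV6 2 µM and Z-VAD-FMK 20 µM final, at 37 °C. Viability was read by SRB absorbance; EC50 values were fitted.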
# [1] = male, SD, plasma, intravenous, 0.5 mg/kg
# [2] = male, SD, plasma, oral, 5 mg/kg
# [3] = Homo sapiens, HT-29, TNF-α 20 ng/mL + BV6 2 µM + Z-VAD-FMK 20 µM
# [4] = TNF-α 20 ng/mL + BV6 2 µM + Z-VAD-FMK 20 µM
AUC(0-t) (in vivo; [1]) [ng·h/mL],Cmax (in vivo; [1]) [ng/mL],clearance (in vivo; [1]) [mL/min/kg],half-life (in vivo; [1]) [min],AUC(0-t) (in vivo; [2]) [ng·h/mL],CL/F (in vivo; [2]) [mL/min/kg],Cmax (in vivo; [2]) [ng/mL],half-life (in vivo; [2]) [min],"AUC(0-t) (in vivo; in vivo, iv, 0.5 mg/kg) [ng·h/mL]","Cmax (in vivo; in vivo, iv, 0.5 mg/kg) [ng/mL]","clearance (in vivo; in vivo, iv, 0.5 mg/kg) [mL/min/kg]","half-life (in vivo; in vivo, iv, 0.5 mg/kg) [min]","AUC(0-t) (in vivo; in vivo, po, 5 mg/kg) [ng·h/mL]","CL/F (in vivo; in vivo, po, 5 mg/kg) [mL/min/kg]","Cmax (in vivo; in vivo, po, 5 mg/kg) [ng/mL]","half-life (in vivo; in vivo, po, 5 mg/kg) [min]",Molecule,EC50 (HT-29 cells; [3]) [nM],EC50 (HT-29 cells; [4]) [nM]
5560,4320,1.5,197,21700 ± 6530,4.03 ± 1.05,5820 ± 1210,184 ± 24.6,–,–,–,–,–,–,–,–,"CN1C(=O)[C@@H](NC(=O)c2nnc(Cc3ccccc3)[nH]2)COc2ccccc21 [GSK2982772, (S)-5-benzyl-N-(5-methyl-4-oxo-2,3,4,5-tetrahydrobenzo[b][1,4]oxazepin-3-yl)-4H-1,2,4-triazole-3-carboxamide, reference compound]",5 to 10,–
–,–,–,–,–,–,–,–,1980 ± 204,1430 ± 181,5.54 ± 2.45,143 ± 106,22600 ± 2370,3.7 ± 0.39,4100 ± 520,176 ± 9.6,"Cn1cc(C#Cc2cc3c4c(c2)CCN4C(=O)C(NC(=O)c2ncn(Cc4c(F)cccc4F)n2)CC3)cn1 (centres unmarked) [III-1, 1-(2,6-difluorobenzyl)-N-(9-((1-methyl-1H-pyrazol-4-yl)ethynyl)-4-oxo-1,2,3,4,6,7-hexahydroazepino[3,2,1-hi]indol-3-yl)-1H-1,2,4-triazole-3-carboxamide]",< 5,–
–,–,–,–,–,–,–,–,5340 ± 1330,1940 ± 319,1.6 ± 0.39,142 ± 38.4,27700 ± 1560,3.01 ± 0.18,4660 ± 132,154 ± 41.4,"Cn1cc(C#Cc2cc3c4c(c2)CCN4C(=O)C(NC(=O)c2ncn(Cc4cc(F)ccc4F)n2)CC3)cn1 (centres unmarked) [III-10, 1-(2,5-difluorobenzyl)-N-(9-((1-methyl-1H-pyrazol-4-yl)ethynyl)-4-oxo-1,2,3,4,6,7-hexahydroazepino[3,2,1-hi]indol-3-yl)-1H-1,2,4-triazole-3-carboxamide]",< 5,–
–,–,–,–,–,–,–,–,8830 ± 1290,1300 ± 23.2,0.91 ± 0.18,347 ± 134,60400 ± 9300,1.39 ± 0.2,7330 ± 781,191 ± 31.2,"Cn1cc(C#Cc2cc3c4c(c2)CCN4C(=O)C(NC(=O)c2ncn(Cc4ccc(F)c(F)c4)n2)CC3)cn1 (centres unmarked) [III-12, 1-(3,4-difluorobenzyl)-N-(9-((1-methyl-1H-pyrazol-4-yl)ethynyl)-4-oxo-1,2,3,4,6,7-hexahydroazepino[3,2,1-hi]indol-3-yl)-1H-1,2,4-triazole-3-carboxamide]",10 to 100,–
–,–,–,–,–,–,–,–,–,–,–,–,–,–,–,–,"O=C(NC1CCc2cc(C#Cc3cnn(C(F)F)c3)cc3c2N(CC3)C1=O)c1ncn(Cc2c(F)cccc2F)n1 (centres unmarked) [III-17, 1-(2,6-difluorobenzyl)-N-(9-((1-(difluoromethyl)-1H-pyrazol-4-yl)ethynyl)-4-oxo-1,2,3,4,6,7-hexahydroazepino[3,2,1-hi]indol-3-yl)-1H-1,2,4-triazole-3-carboxamide]",–,< 5
–,–,–,–,–,–,–,–,703 ± 191,662 ± 110,12.2 ± 3.04,82.2 ± 12,8130 ± 3570,10.3 ± 3.12,1480 ± 545,178 ± 41.4,"O=C(NC1CCc2cc(C#Cc3cnn(C(F)F)c3)cc3c2N(CC3)C1=O)c1ncn(Cc2cc(F)ccc2F)n1 (centres unmarked) [III-19, 1-(2,5-difluorobenzyl)-N-(9-((1-(difluoromethyl)-1H-pyrazol-4-yl)ethynyl)-4-oxo-1,2,3,4,6,7-hexahydroazepino[3,2,1-hi]indol-3-yl)-1H-1,2,4-triazole-3-carboxamide]",< 5,–
–,–,–,–,–,–,–,–,651 ± 66.4,619 ± 65.8,12.8 ± 1.27,71.4 ± 6,6250 ± 2790,14.9 ± 6.92,1280 ± 509,160 ± 41.4,"O=C(NC1CCc2cc(C#Cc3cnn(C(F)F)c3)cc3c2N(CC3)C1=O)c1ncn(Cc2ccccc2F)n1 (centres unmarked) [III-21, N-(9-((1-(difluoromethyl)-1H-pyrazol-4-yl)ethynyl)-4-oxo-1,2,3,4,6,7-hexahydroazepino[3,2,1-hi]indol-3-yl)-1-(2-fluorobenzyl)-1H-1,2,4-triazole-3-carboxamide]",< 5,–
–,–,–,–,–,–,–,–,550 ± 34.5,896 ± 158,15.2 ± 0.98,26.4 ± 1.8,2810 ± 177,29.6 ± 1.95,1370 ± 389,239 ± 149,"C#Cc1cc2c3c(c1)CCN3C(=O)C(NC(=O)c1ncn(Cc3c(F)cccc3F)n1)CC2 (centres unmarked) [III-26, 1-(2,6-difluorobenzyl)-N-(9-ethynyl-4-oxo-1,2,3,4,6,7-hexahydroazepino[3,2,1-hi]indol-3-yl)-1H-1,2,4-triazole-3-carboxamide]",< 5,–
–,–,–,–,–,–,–,–,–,–,–,–,–,–,–,–,"N-(9-((1-(difluoromethyl)-1H-pyrazol-4-yl)ethynyl)-4-oxo-1,2,3,4,6,7-hexahydroazepino[3,2,1-hi]indol-3-yl)-1-(4-methylbenzyl)-1H-1,2,4-triazole-3-carboxamide [III-25]",–,5 to 10
